Earlier results on 1 compound are cited in patent US4746734A, “Partially methylated cyclodextrins and process for producing the same” (Sanraku Incorporated, priority 1985, dated 1988).

The structures appear in SMILES notation.

For the data set the following is noted: background statement.

`OC[C@H]1O[C@@H]2O[C@H]3[C@H](O)[C@@H](O)[C@@H](O[C@H]4[C@H](O)[C@@H](O)[C@@H](O[C@H]5[C@H](O)[C@@H](O)[C@@H](O[C@H]6[C@H](O)[C@@H](O)[C@@H](O[C@H]7[C@H](O)[C@@H](O)[C@@H](O[C@H]8[C@H](O)[C@@H](O)[C@@H](O[C@H]1[C@H](O)[C@H]2O)O[C@@H]8CO)O[C@@H]7CO)O[C@@H]6CO)O[C@@H]5CO)O[C@@H]4CO)O[C@@H]3CO` [β-CD]: the “solubility in water (description of prior art)” value is “particularly low in water solubility”.
